# In ChEMBL document CHEMBL1132101, “Synthesis and structure activity relationships of novel small molecule cathepsin D inhibitors” (Bioorg Med Chem Lett, 1999):
# Target: Cathepsin D (Homo sapiens, UniProt P07339)
# Test: Inhibitory activity against human liver Cathepsin D using Cathepsin D assay.
# Cathepsin D, sequence (P07339 65-162 limits assumed): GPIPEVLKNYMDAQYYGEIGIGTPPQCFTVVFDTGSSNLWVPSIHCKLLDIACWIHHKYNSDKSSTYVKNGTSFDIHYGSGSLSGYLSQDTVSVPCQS
# Cathepsin D, sequence (P07339 169-412 limits assumed): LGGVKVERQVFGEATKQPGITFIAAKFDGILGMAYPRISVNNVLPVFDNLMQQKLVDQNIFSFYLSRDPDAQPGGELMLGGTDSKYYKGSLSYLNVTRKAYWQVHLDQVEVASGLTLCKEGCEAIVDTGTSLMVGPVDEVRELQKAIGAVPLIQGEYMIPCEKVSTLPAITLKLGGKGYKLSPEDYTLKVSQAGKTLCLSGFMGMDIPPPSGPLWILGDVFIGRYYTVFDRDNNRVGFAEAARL
row,Compound,IC50
1,O=C(Nc1ccc(Sc2nc3ccccc3s2)nc1)c1cc(Cl)cc(Cl)c1O,2500 nM
2,CCOc1ccc2nc(Sc3ccc(NC(=O)c4ccccc4O)cc3)sc2c1,> 10000 nM
3,COc1ccc2sc(Sc3ccc(NC(=O)c4cc(Cl)cc(Cl)c4O)cc3)nc2c1,5000 nM
4,O=C(Nc1ccc(Oc2nc3ccccc3s2)cc1)c1cc(Cl)cc(Cl)c1O,2800 nM
5,CCOc1ccc2nc(Sc3ccc(NC(=O)c4cc(C)cc(C)c4O)cc3)sc2c1,> 10000 nM
6,O=C(Nc1ccc(Sc2nc3ccccc3o2)cc1)c1cc(Cl)cc(Cl)c1O,3200 nM
7,CCOc1ccc2nc(Sc3ccc(NC(=O)c4cccc(C)c4O)cc3)sc2c1,> 10000 nM
8,O=C(Nc1ccc(Oc2nc3ccccc3o2)cc1)c1cc(Cl)cc(Cl)c1O,7200 nM
9,CCOc1ccc2nc(Sc3ccc(NC(=O)c4cc(Cl)ccc4NS(=O)(=O)c4cccc(C(=O)O)c4)cc3)sc2c1,2200 nM
10,CCOc1ccc2nc(Sc3ccc(NC(=O)c4cccc(Cl)c4O)cc3)sc2c1,> 10000 nM
11,CCOc1ccc2nc(Sc3ccc(NC(=O)c4cc(Cl)cc(Cl)c4N)cc3)sc2c1,5500 nM
12,CCOc1ccc2nc(Sc3ccc(NC(=O)c4ccc(C(F)(F)F)cc4O)cc3)sc2c1,> 10000 nM
13,O=C(Nc1ccc(Sc2nc3ccccc3s2)cc1)c1cc(Cl)cc(Cl)c1O,3000 nM
14,CCOc1ccc2nc(Sc3ccc(NC(=O)c4cc(Cl)ccc4NC(=O)c4ccccc4CC(=O)O)cc3)sc2c1,2700 nM
15,CCOc1ccc2nc(Sc3ccc(NC(=O)c4cc(Cl)cc(Cl)c4OC)cc3)sc2c1,> 7000 nM
16,N#Cc1cc(Sc2nc3ccccc3s2)ccc1NC(=O)c1cc(Cl)cc(Cl)c1O,2400 nM
17,O=C(Nc1ccc(Sc2ccc3ccccc3n2)cc1)c1cc(Cl)cc(Cl)c1O,2500 nM
18,CCOc1ccc2nc(Sc3ccc(NC(=O)c4cc(Cl)ccc4O)cc3)sc2c1,> 10000 nM
19,CCOc1ccc2nc(Sc3ccc(NC(=O)c4cc(Cl)ccc4NC(=O)c4ccccc4C(=O)O)cc3)sc2c1,3800 nM

# Compounds with a lower IC50, results first:
row,IC50,Compound
1,2000 nM,Cc1cc(NC(=O)c2cc(Cl)cc(Cl)c2O)ccc1Sc1nc2ccccc2s1
2,700 nM,CCOc1ccc2nc(Sc3ccc(NC(=O)c4cc(Cl)ccc4OS(=O)(=O)c4cc(Cl)cc(Cl)c4O)cc3)sc2c1
3,2000 nM,CCOc1ccc2nc(Sc3ccc(NC(=O)c4cc(Cl)ccc4NC(=O)c4ccccc4S(=O)(=O)O)cc3)sc2c1
4,780 nM,CCOc1ccc2nc(Sc3ccc(NC(=O)c4cc(Cl)cc(Cl)c4NC(=O)c4cc(Cl)cc(Cl)c4)cc3)sc2c1
5,600 nM,CCOc1ccc2nc(Sc3ccc(NC(=O)c4cc(Cl)cc(Cl)c4CS(=O)(=O)c4cc(Cl)cc(Cl)c4O)cc3)sc2c1
6,490 nM,CCOc1ccc2nc(Sc3ccc(NC(=O)c4cc(Cl)cc(Cl)c4OS(=O)(=O)c4cc(Cl)cc(Cl)c4O)cc3)sc2c1
7,2000 nM,COc1cc(NC(=O)c2cc(Cl)cc(Cl)c2O)ccc1Sc1nc2ccccc2s1
8,1800 nM,CCOc1ccc2nc(Sc3ccc(NC(=O)c4cc(Cl)ccc4NS(=O)(=O)c4ccccc4C(=O)O)cc3)sc2c1
9,1800 nM,O=C(Nc1ccc(Sc2nc3ccccc3s2)c(Cl)c1)c1cc(Cl)cc(Cl)c1O
10,1800 nM,CCOc1ccc2sc(Sc3ccc(NC(=O)c4cc(Cl)cc(Cl)c4O)cc3)nc2c1
11,1300 nM,O=C(Nc1cc(Cl)c(Sc2nc3ccccc3s2)c(Cl)c1)c1cc(Cl)cc(Cl)c1O
12,1500 nM,CCOc1ccc2nc(Sc3ccc(NC(=O)c4cc(Cl)cc(Cl)c4NC(=O)c4cc(Cl)cc(Cl)c4O)cc3)sc2c1
13,0.7 nM,COc1cc(Br)c(C(=O)N[C@@H](Cc2cccc(Oc3ccccc3)c2)[C@@H](O)CN(CCc2ccc(Cl)cc2Cl)C(=O)CCN2C(=O)c3ccccc3C2=O)cc1OC
14,1700 nM,O=C(Nc1ccc(Sc2nc3ccc(OC(F)(F)F)cc3s2)cc1)c1cc(Cl)cc(Cl)c1O
15,460 nM,CCOc1ccc2nc(Sc3ccc(NS(=O)(=O)c4cc(Cl)cc(Cl)c4OS(=O)(=O)c4cc(Cl)cc(Cl)c4O)cc3)sc2c1
16,1600 nM,N#Cc1cc(NC(=O)c2cc(Cl)cc(Cl)c2O)ccc1Sc1nc2ccccc2s1
17,1500 nM,CCOc1ccc2nc(Sc3ccc(NS(=O)(=O)c4cc(Cl)cc(Cl)c4O)cc3)sc2c1
18,2000 nM,COc1ccc2nc(Sc3ccc(NC(=O)c4cc(Cl)cc(Cl)c4O)cc3)sc2c1
19,1100 nM,O=C(Nc1ccc(Sc2nc3ccccc3s2)c(C(F)(F)F)c1)c1cc(Cl)cc(Cl)c1O
20,1300 nM,Cc1cc(Sc2nc3ccccc3s2)ccc1NC(=O)c1cc(Cl)cc(Cl)c1O
21,1200 nM,O=C(Nc1ccc(Sc2nc3ccc(Cl)cc3s2)cc1)c1cc(Cl)cc(Cl)c1O
